Patent US4923986A, “Derivatives of physiologically active substance K-252” (Kyowa Hakko Kogyo Co., Ltd., priority 1988, dated 1990)
Values after ≈ are worked out from the molar mass of the structure shown.

What follows are molecules tested on PC-10 cells (assay: PC-10 cell growth inhibition test). Details: Homo sapiens, PC10, 72 h, read-out: cell growth inhibitory activity IC50, PC-10.
Type: cell-based
Experimental: (§1) Compound (I) was examined for C-kinase inhibitory activity and cell growth inhibitory activity by the following method.
(§2) MCF 7 cells (4.5×10^4 cells/ml) prepared in RPMI 1640 medium containing 10% fetal calf serum, 10 μg/ml insulin and 10^-8 M estradiol are put into wells of a 96-well microtiter plate in the amount of 0.1 ml per each well. After incubation at 37° C. overnight in CO2 -incubator, 0.05 ml each of a test sample appropriately diluted with the culture medium is added to each well. In the case of contact for 72 hours, the cells are further cultured in CO2 -incubator, and then the culture supernatant is removed and the wells are washed once with PBS(-). Thereafter, 0.1 ml of fresh medium is added to each well, followed by culturing at 37° C. for 72 hours in CO2 -incubator. After the culture supernatant is removed, 0.1 ml of the culture medium containing 0.02% Neutral Red is added to each well, followed by culturing at 37° C. for one hour in CO2 -incubator, whereby the cells are stained. Then, the culture supernatant is removed and the cells are washed once with physiological saline. The pigment is extracted with 0.001N HCl/30% ethanol and absorption is measured at 550 nm with a microplate reader. By comparing the absorption of intact cells with those of the cells treated with a test compound in known concentrations, the concentration of the test compound at which growth of the cells is inhibited 50% is calculated as IC50.
(2) PC-10 cell growth inhibition test:
PC-10 cells (5×10^4 cells/ml) prepared in MEM medium containing 10% fetal calf serum and 2 mM glutamine are put into wells of a 96-well microtiter plate in the amount of 0.1 ml per each well.
Thereafter, the test is carried out in the same manner as in the MCF 7 cell growth inhibition test.

Row | Compound | IC50 [µg/mL]
1 | CC12OC(CC1O)n1c3ccccc3c3c4c(c5c6ccccc6n2c5c31)CNC4=O (stereo not drawn) [Compound 48] | 0.48 (≈ 1.17 µM)

Same assay, conditions: Homo sapiens, PC10; PC-10 cells, contact for 72 hours; read-out: cell growth inhibitory activity IC50, PC-10

Row | Compound | IC50 [µg/mL]
2 | C[C@]12O[C@H](C[C@]1(O)C(=O)NO)n1c3ccccc3c3c4c(c5c6ccccc6n2c5c31)CNC4=O (relative stereo) [Compound 1] | 0.14 (≈ 0.299 µM)
3 | C[C@]12O[C@H](C[C@]1(O)C(N)=O)n1c3ccccc3c3c4c(c5c6ccccc6n2c5c31)CNC4=O (relative stereo) [Compound 2] | 0.03 (≈ 0.0663 µM)
4 | C[C@]12O[C@H](C[C@]1(O)C(=O)NCCO)n1c3ccccc3c3c4c(c5c6ccccc6n2c5c31)CNC4=O (relative stereo) [Compound 3] | 0.68 (≈ 1.37 µM)
5 | CCOC(=O)[C@@]1(O)C[C@H]2O[C@]1(C)n1c3ccccc3c3c4c(c5c6ccccc6n2c5c31)C(=O)NC4 (relative stereo) [Compound 4] | > 1
6 | COC(=O)[C@@]1(O)C[C@H]2O[C@]1(C)n1c3ccccc3c3c4c(c5c6ccccc6n2c5c31)C(=O)N(Cl)C4 (relative stereo) [Compound 5] | 0.84 (≈ 1.67 µM)
7 | COC(=O)[C@@]1(O)C[C@H]2O[C@]1(C)n1c3ccccc3c3c4c(c5c6cc(Br)ccc6n2c5c31)C(=O)NC4 (relative stereo) [Compound 7] | 0.76 (≈ 1.39 µM)
8 | C[C@]12O[C@H](C[C@]1(O)CN=[N+]=[N-])n1c3ccccc3c3c4c(c5c6ccccc6n2c5c31)CNC4=O (relative stereo) [Compound 29] | 0.71 (≈ 1.53 µM)
9 | C[C@]12O[C@H](C[C@]1(O)CN)n1c3ccccc3c3c4c(c5c6ccccc6n2c5c31)CNC4=O (relative stereo) [Compound 30] | 0.04 (≈ 0.0912 µM)
10 | CSCC1(O)CC2OC1(C)n1c3ccccc3c3c4c(c5c6ccccc6n2c5c31)C(=O)NC4 (stereo not drawn) [Compound 45] | > 1
11 | C[S+]([O-])CC1(O)CC2OC1(C)n1c3ccccc3c3c4c(c5c6ccccc6n2c5c31)C(=O)NC4 (stereo not drawn) [Compound 46] | 0.27 (≈ 0.556 µM)
12 | CC12OC(CC13COS(=O)O3)n1c3ccccc3c3c4c(c5c6ccccc6n2c5c31)CNC4=O (stereo not drawn) [Compound 55] | 0.64 (≈ 1.32 µM)
13 | CC12OC(CC13CNC(=S)O3)n1c3ccccc3c3c4c(c5c6ccccc6n2c5c31)CNC4=O (stereo not drawn) [Compound 58] | 0.69 (≈ 1.44 µM)

These molecules were tested on HeLaS3 cells (assay: HeLaS3 cell growth inhibition test). Details: Homo sapiens, HeLa S3, 72 h, read-out: cell growth inhibitory activity IC50, HeLaS3.
Type: cell-based
Experimental: as §1, §2
(3) HeLaS3 cell growth inhibition test:
HeLaS3 cells (3×10^4 cells/ml) prepared in MEM medium containing 10% fetal calf serum and 2 mM glutamine are put into wells of a 96-well microtiter plate in the amount of 0.1 ml per each well.
Thereafter, the test is carried out in the same manner as in (1).

Row | Compound | IC50 [µg/mL]
14 | CC12OC(CC1O)n1c3ccccc3c3c4c(c5c6ccccc6n2c5c31)CNC4=O (stereo not drawn) [Compound 48] | 0.72 (≈ 1.76 µM)

Same assay, conditions: Homo sapiens, HeLa S3; HeLaS3 cells, contact for 72 hours; read-out: cell growth inhibitory activity IC50, HeLaS3

Row | Compound | IC50 [µg/mL]
15 | C[C@]12O[C@H](C[C@]1(O)C(=O)NCCO)n1c3ccccc3c3c4c(c5c6ccccc6n2c5c31)CNC4=O (relative stereo) [Compound 3] | 0.95 (≈ 1.91 µM)
16 | CCOC(=O)[C@@]1(O)C[C@H]2O[C@]1(C)n1c3ccccc3c3c4c(c5c6ccccc6n2c5c31)C(=O)NC4 (relative stereo) [Compound 4] | 0.6 (≈ 1.25 µM)
17 | COC(=O)[C@@]1(O)C[C@H]2O[C@]1(C)n1c3ccccc3c3c4c(c5c6ccccc6n2c5c31)C(=O)N(Cl)C4 (relative stereo) [Compound 5] | 0.51 (≈ 1.02 µM)
18 | COC(=O)[C@@]1(O)C[C@H]2O[C@]1(C)n1c3ccccc3c3c4c(c5c6cc(Br)ccc6n2c5c31)C(=O)NC4 (relative stereo) [Compound 7] | 0.15 (≈ 0.275 µM)
19 | CC12OC(CC13COS(=O)O3)n1c3ccccc3c3c4c(c5c6ccccc6n2c5c31)CNC4=O (stereo not drawn) [Compound 55] | 0.14 (≈ 0.288 µM)
20 | CC12OC(CC13CNC(=S)O3)n1c3ccccc3c3c4c(c5c6ccccc6n2c5c31)CNC4=O (stereo not drawn) [Compound 58] | 0.28 (≈ 0.583 µM)

Continued, values first:

Row | IC50 [µg/mL] | Compound
21 | 0.59 (≈ 1.26 µM) | C[C@]12O[C@H](C[C@]1(O)C(=O)NO)n1c3ccccc3c3c4c(c5c6ccccc6n2c5c31)CNC4=O (relative stereo) [Compound 1]
22 | 0.22 (≈ 0.486 µM) | C[C@]12O[C@H](C[C@]1(O)C(N)=O)n1c3ccccc3c3c4c(c5c6ccccc6n2c5c31)CNC4=O (relative stereo) [Compound 2]
23 | 0.44 (≈ 0.947 µM) | C[C@]12O[C@H](C[C@]1(O)CN=[N+]=[N-])n1c3ccccc3c3c4c(c5c6ccccc6n2c5c31)CNC4=O (relative stereo) [Compound 29]
24 | 0.07 (≈ 0.16 µM) | C[C@]12O[C@H](C[C@]1(O)CN)n1c3ccccc3c3c4c(c5c6ccccc6n2c5c31)CNC4=O (relative stereo) [Compound 30]
25 | 0.55 (≈ 1.17 µM) | CSCC1(O)CC2OC1(C)n1c3ccccc3c3c4c(c5c6ccccc6n2c5c31)C(=O)NC4 (stereo not drawn) [Compound 45]
26 | > 1 | C[S+]([O-])CC1(O)CC2OC1(C)n1c3ccccc3c3c4c(c5c6ccccc6n2c5c31)C(=O)NC4 (stereo not drawn) [Compound 46]

Each molecule was assayed against C-kinase (protein kinase C) (assay: C-Kinase inhibitory activity test). Details: enzyme activity inhibited 50%.
Type: biochemical

Row | Compound | C-Kinase inhibitory activity IC50 [µg/mL]
27 | C[C@]12O[C@H](C[C@]1(O)C(=O)NCCO)n1c3ccccc3c3c4c(c5c6ccccc6n2c5c31)CNC4=O (relative stereo) [Compound 3] | 0.018
28 | CCOC(=O)[C@@]1(O)C[C@H]2O[C@]1(C)n1c3ccccc3c3c4c(c5c6ccccc6n2c5c31)C(=O)NC4 (relative stereo) [Compound 4] | 0.13
29 | COC(=O)[C@@]1(O)C[C@H]2O[C@]1(C)n1c3ccccc3c3c4c(c5c6ccccc6n2c5c31)C(=O)N(Cl)C4 (relative stereo) [Compound 5] | 0.034
30 | COC(=O)[C@@]1(O)C[C@H]2O[C@]1(C)n1c3ccccc3c3c4c(c5c6cc(Br)ccc6n2c5c31)C(=O)NC4 (relative stereo) [Compound 7] | 0.028
31 | CC12OC(CC1O)n1c3ccccc3c3c4c(c5c6ccccc6n2c5c31)CNC4=O (stereo not drawn) [Compound 48] | 0.022
32 | CC12OC(CC13COS(=O)O3)n1c3ccccc3c3c4c(c5c6ccccc6n2c5c31)CNC4=O (stereo not drawn) [Compound 55] | 0.038
33 | CC12OC(CC13CNC(=S)O3)n1c3ccccc3c3c4c(c5c6ccccc6n2c5c31)CNC4=O (stereo not drawn) [Compound 58] | 0.017

Second part, the molecule after the results:

Row | C-Kinase inhibitory activity IC50 [µg/mL] | Compound
34 | 0.005 | C[C@]12O[C@H](C[C@]1(O)C(=O)NO)n1c3ccccc3c3c4c(c5c6ccccc6n2c5c31)CNC4=O (relative stereo) [Compound 1]
35 | 0.003 | C[C@]12O[C@H](C[C@]1(O)C(N)=O)n1c3ccccc3c3c4c(c5c6ccccc6n2c5c31)CNC4=O (relative stereo) [Compound 2]
36 | 0.06 | C[C@]12O[C@H](C[C@]1(O)CN=[N+]=[N-])n1c3ccccc3c3c4c(c5c6ccccc6n2c5c31)CNC4=O (relative stereo) [Compound 29]
37 | 0.015 | C[C@]12O[C@H](C[C@]1(O)CN)n1c3ccccc3c3c4c(c5c6ccccc6n2c5c31)CNC4=O (relative stereo) [Compound 30]
38 | 0.11 | CSCC1(O)CC2OC1(C)n1c3ccccc3c3c4c(c5c6ccccc6n2c5c31)C(=O)NC4 (stereo not drawn) [Compound 45]
39 | 0.06 | C[S+]([O-])CC1(O)CC2OC1(C)n1c3ccccc3c3c4c(c5c6ccccc6n2c5c31)C(=O)NC4 (stereo not drawn) [Compound 46]
